Target: T1, human orexin type 2 receptor (Homo sapiens, UniProt O43614)
T1 construct: expressed in transfected cells
T1 sequence (O43614 1-444): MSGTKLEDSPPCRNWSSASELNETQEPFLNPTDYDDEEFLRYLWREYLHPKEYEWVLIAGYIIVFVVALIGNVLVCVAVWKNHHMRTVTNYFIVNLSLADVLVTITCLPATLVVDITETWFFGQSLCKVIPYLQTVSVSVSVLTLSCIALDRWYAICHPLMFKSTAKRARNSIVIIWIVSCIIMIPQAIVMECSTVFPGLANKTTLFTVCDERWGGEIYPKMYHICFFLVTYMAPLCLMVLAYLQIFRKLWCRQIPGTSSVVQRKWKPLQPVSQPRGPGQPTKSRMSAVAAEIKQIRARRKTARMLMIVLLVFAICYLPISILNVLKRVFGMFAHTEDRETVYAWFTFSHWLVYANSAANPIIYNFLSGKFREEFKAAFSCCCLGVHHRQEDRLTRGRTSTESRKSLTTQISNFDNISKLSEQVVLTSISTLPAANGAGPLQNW
Assay: Measurement of orexin type 2 receptor agonist activity (calcium fluorescence, CHO cells forcibly expressing human OX2 receptor)
Type: cell-based
Settings: compound at 3 μM, DMSO = 0%, orexin A (human) 10 nM = 100%
Source text: To obtain a cell clone stably expressing human orexin type 2 receptor, human orexin type 2 receptor cDNA was inserted into pcDNA3.1(+) plasmid vector (Invitrogen), and a plasmid DNA for expression of human orexin type 2 receptor (pcDNA3.1(+)/hOX2R) was cloned. The plasmid DNA was introduced into CHO-K1 cell by an electroporation method, and human orexin type 2 receptor-expressing clonal cells were obtained by limiting dilution method using G418 drug resistance as a selection marker.
CHO cells forcibly expressing human OX2 receptor were seeded in each well of 384 well black transparent bottom plate (BD Falcon) at 10,000 cells/well, and cultured for one day in a 5% CO2 incubator at 37° C. After removal of the medium in the cell plate, assay buffer A containing a calcium indicator (HBSS (Thermo Fisher Scientific), 20 mM HEPES (Thermo Fisher Scientific), 0.1% BSA (Sigma-Aldrich), 2.5 μg/mL Fluo-4 AM (DOJINDO Chemical), 0.08% Pluronic F127 (DOJINDO Chemical), 1.25 mM probenecid (DOJINDO Chemical)) was added thereto at 30 μL/well. The plate was stood for 30 min in a 5% CO2 incubator at 37° C., and further stood at room temperature for 30 min. A test compound prepared by diluting with assay buffer B (HBSS, 20 mM HEPES, 0.1% BSA) was added thereto at 10 μL/well, and the fluorescence value was measured by FDSSμCELL (Hamamatsu Photonics K.K.) every one sec for 1 min, and thereafter every two sec for 1 min 40 sec. The activity (%) of the test compound was calculated assuming that variation in the fluorescence value when DMSO was added instead of the test compound was 0%, and variation in the fluorescence value when orexin A (human) (PEPTIDE INSTITUTE, INC.) was added at the final concentration of 10 nM was 100%.

Going from `CCCCCC1CCC(OCC2C(NS(=O)(=O)C3CC3)CCc3ccc(C)c(=O)n32)CC1` (racemic) [Example 76, rac-N-[(3S,4R)-7-methyl-6-oxo-4-({[(1r,4S)-4-pentylcyclohexyl]oxy}methyl)-1,3,4,6-tetrahydro-2H-quinolizin-3-yl]cyclopropanesulfonamide] to `CCCCC1CCC(OCC2C(NS(C)(=O)=O)CCc3ccc(C)c(=O)n32)CC1` (racemic) [Example 80, rac-N-[(3S,4R)-4-({[(1r,4S)-4-butylcyclohexyl]oxy}methyl)-7-methyl-6-oxo-1,3,4,6-tetrahydro-2H-quinolizin-3-yl]methanesulfonamide], the “OX2R agonist activity (3 μM, %)” value rises from 93% to 99%.

Going from `CCOCC1CCC(OCC2C(NS(C)(=O)=O)CCc3ccc(C)c(=O)n32)CC1` (racemic) [Example 81, rac-N-[(3S,4R)-4-({[(1s,4S)-4-(ethoxymethyl)cyclohexyl]oxy}methyl)-7-methyl-6-oxo-1,3,4,6-tetrahydro-2H-quinolizin-3-yl]methanesulfonamide] to `Cc1ccc2n(c1=O)C(COC1CCC(COC(C)C)CC1)C(NS(C)(=O)=O)CC2` (racemic) [Example 92, rac-N-[(3S,4R)-7-methyl-6-oxo-4-({[(1s,4S)-4-([(propan-2-yl)oxy]methyl}cyclohexyl]oxy}methyl)-1,3,4,6-tetrahydro-2H-quinolizin-3-yl]methanesulfonamide], the “OX2R agonist activity (3 μM, %)” value falls from 102% to 90%.

First: Cc1ccc2n(c1=O)C(COC1CCC(COC3CCCCO3)CC1)C(NS(C)(=O)=O)CC2 (racemic) [Example 82, N-[(3SR,4RS)-7-methyl-4-(([(1s,4S)-4-{[(oxay-2-yl)oxy]methyl}cyclohexyl]oxy}methyl)-6-oxo-1,3,4,6-tetrahydro-2H-quinolizin-3-yl]methanesulfonamide]
Second: Cc1ccc2n(c1=O)C(COC1CCC(CC3CC3)CC1)C(NS(C)(=O)=O)CC2 (racemic) [Example 87, rac-N-[(3S,4R)-4-({[(1s,4S)-4-(cyclopropylmethyl)cyclohexyl]oxy}methyl)-7-methyl-6-oxo-1,3,4,6-tetrahydro-2H-quinolizin-3-yl]methanesulfonamide]
The “OX2R agonist activity (3 μM, %)” value of the first is lower: 56% for the first, 89% for the second.

Compared with `COCCC1CCC(OCC2C(NS(C)(=O)=O)CCc3ccc(C)c(=O)n32)CC1` (racemic) [Example 83, rac-N-[(3S,4R)-4-({[(1s,4S)-4-(2-methoxyethyl)cyclohexyl]oxy}methyl)-7-methyl-6-oxo-1,3,4,6-tetrahydro-2H-quinolizin-3-yl]methanesulfonamide], `Cc1ccc2n(c1=O)C(COC1CCC(CF)CC1)C(NS(C)(=O)=O)CC2` (racemic) [Example 86, rac-N-[(3S,4R)-4-({[(1s,4S)-4-(fluoromethyl)cyclohexyl]oxy}methyl)-7-methyl-6-oxo-1,3,4,6-tetrahydro-2H-quinolizin-3-yl]methanesulfonamide] is lower in “OX2R agonist activity (3 μM, %)” value: 91% for the first, 89% for the second.

Compared with `CCOC(=O)CC1CCC(OCC2C(NS(C)(=O)=O)CCc3ccc(C)c(=O)n32)CC1` (racemic) [Example 84, rac-ethyl [(1S,4s)-4-({(3S,4R)-3-[(methanesulfonyl)amino]-7-methyl-6-oxo-1,3,4,6-tetrahydro-2H-quinolizin-4-yl}methoxy)cyclohexyl]acetate], `Cc1ccc2n(c1=O)C(COC1CCC(CC(C)(C)O)CC1)C(NS(C)(=O)=O)CC2` (racemic) [Example 85, rac-N-[(3S,4R)-4-({[(1s,4S)-4-(2-hydroxy-2-methylpropyl)cyclohexyl]oxy}methyl)-7-methyl-6-oxo-1,3,4,6-tetrahydro-2H-quinolizin-3-yl]methanesulfonamide] is lower in “OX2R agonist activity (3 μM, %)” value: 75% for the first, 59% for the second.

Compared with `Cc1ccc2n(c1=O)C(COC1CCC(CC(C)C)CC1)C(NS(C)(=O)=O)CC2` (racemic) [Example 88, rac-N-[(3S,4R)-7-methyl-4-({[(1a,4S)-4-(2-methylpropyl)cyclohexyl]oxy}methyl)-6-oxo-1,3,4,6-tetrahydro-2H-quinolizin-3-yl]methanesulfonamide], `Cc1ccc2n(c1=O)C(COC1CCC(C)CC1)C(NS(C)(=O)=O)CC2` [Example 1, rel-N-[(3S,4R)-7-methyl-4-({[(1s,4S)-4-methylcyclohexyl]oxy}methyl)-6-oxo-1,3,4,6-tetrahydro-2H-quinolizin-3-yl]methanesulfonamide] is higher in “OX2R agonist activity (3 μM, %)” value: 95% for the first, 96% for the second.

Going from `Cc1ccc2n(c1=O)C(COC1CCC(C3CCC3)CC1)C(NS(C)(=O)=O)CC2` (racemic) [Example 93, rac-N-[(3S,4R)-4-({[(1s,4S)-4-cyclobutylcyclohexyl]oxy}methyl)-7-methyl-6-oxo-1,3,4,6-tetrahydro-2H-quinolizin-3-yl]methanesulfonamide] to `Cc1ccc2n(c1=O)C(COC1CCC(C3CC3C)CC1)C(NS(C)(=O)=O)CC2` (racemic) [Example 97, N-{7-methyl-4-[({(1S,4S)-4-[(1RS,2SR)-2-methylcyclopropyl]cyclohexyl)oxy)methyl]-6-oxo-1,3,4,6-tetrahydro-2H-quinolizin-3-yl]methanesulfonamide], the “OX2R agonist activity (3 μM, %)” value falls from 97% to 94%.

`C=CC1CCC(OCC2C(NS(C)(=O)=O)CCc3ccc(C)c(=O)n32)CC1` (racemic) [Example 99, rac-N-[(3S,4R)-4-({[(1s,4S)-4-ethenylcyclohexyl]oxy}methyl)-7-methyl-6-oxo-1,3,4,6-tetrahydro-2H-quinolizin-3-yl]methanesulfonamide] and `C/C=C\C1CCC(OCC2C(NS(C)(=O)=O)CCc3ccc(C)c(=O)n32)CC1` (racemic) [Example 110, rac-N-{(3S,4R)-7-methyl-6-oxo-4-[({(1s,4S)-4-[(1Z)-prop-1-en-1-yl]cyclohexyl}oxy)methyl]-1,3,4,6-tetrahydro-2H-quinolizin-3-yl}methanesulfonamide] are the same in “OX2R agonist activity (3 μM, %)” value: 91% for the first, 91% for the second.

First: C#CC1CCC(OCC2C(NS(C)(=O)=O)CCc3ccc(C)c(=O)n32)CC1 (racemic) [Example 108, rac-N-[(3S,4R)-4-({[(1s,4S)-4-ethynylcyclohexyl]oxy}methyl)-7-methyl-6-oxo-1,3,4,6-tetrahydro-2H-quinolizin-3-yl]methanesulfonamide]
Second: CC#CC1CCC(OCC2C(NS(C)(=O)=O)CCc3ccc(C)c(=O)n32)CC1 (racemic) [Example 109, rac-N-[(3S,4R)-7-methyl-6-oxo-4-({[(1s,4S)-4-(prop-1-yn-1-yl)cyclohexyl]oxy}methyl)-1,3,4,6-tetrahydro-2H-quinolizin-3-yl]methanesulfonamide]
The “OX2R agonist activity (3 μM, %)” value of the first is higher: 101% for the first, 96% for the second.

First: Cc1ccc2n(c1=O)C(COC1CCC(c3ccccn3)CC1)C(NS(C)(=O)=O)CC2 (racemic) [Example 116, rac-N-[(3S,4R)-7-methyl-6-oxo-4-({[(1s,4S)-4-(pyridin-2-yl)cyclohexyl]oxy)methyl)-1,3,4,6-tetrahydro-2H-quinolizin-3-yl]methanesulfonamide]
Second: Cc1ccc2n(c1=O)C(COC1CCC(C)CC1)C(NS(C)(=O)=O)CC2 [Example 5, rel-N-[(3S,4R)-7-methyl-4-({[(1r,4R)-4-methylcyclohexyl]oxy}methyl)-6-oxo-1,3,4,6-tetrahydro-2H-quinolizin-3-yl]methanesulfonamide]
The “OX2R agonist activity (3 μM, %)” value of the first is lower: 99% for the first, 112% for the second.

First: CCC1CCC(OCC2C(NS(C)(=O)=O)CCc3ccc(C4CC4)c(=O)n32)CC1 [Example 66, rel-N-[(3S,4R)-7-cyclopropyl-4-({[(1s,4S)-4-ethylcyclohexyl]oxy}methyl)-6-oxo-1,3,4,6-tetrahydro-2H-quinolizin-3-yl]methanesulfonamide]
Second: CCc1ccc2n(c1=O)C(COC1CCC(C)CC1)C(NS(=O)(=O)CC)CC2 [Example 71, rel-N-[(3S,4R)-7-ethyl-4-(([(1s,4S)-4-methylcyclohexyl]oxy}methyl)-6-oxo-1,3,4,6-tetrahydro-2H-quinolizin-3-yl)ethanesulfonamide]
The “OX2R agonist activity (3 μM, %)” value of the first is lower: 96% for the first, 99% for the second.

Source: US12448377B2, “Heterocyclic compound” (Takeda Pharmaceutical Company Limited, priority 2019, dated 2025)
